Results on one sequence are retold here after patent publication US20260132172A1, “IN VITRO BIOSYNTHESIS OF DIVERSE PYRIDINE-BASED MACROCYCLIC PEPTIDES” (The Brd. of Trustees of the Univ. of Illinois, priority 2022, published 2026).

One assay deals with MroB/C. In words: MroB/C dehydration (Dha formation) of MroA precursor peptide variants, MALDI-TOF-MS / LC-MS/MS. It is filed as biochemical, Micromonospora rosaria. Particulars: MroA2 multi-site variants, in vitro translated, MALDI-TOF-MS. An outline of the steps: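 MroA variants made by in vitro translation (37 °C, 1 h) were treated for 1 h at room temperature with TEV-cleaved MroB/MroC (2 µM each), GluRS, tRNA^Glu, 6 mM ATP and 5 mM IAA in 50 mM HEPES pH 7.5. Purified substrates were used at 10 µM without IAA. Dehydration was read by positive-mode LC-ESI-MS/MS with CID at 25 eV.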

A further assay deals with MroD. The assay can be described thus: MroD [4+2] macrocyclization of didehydrated MroA2 variants, MALDI-TOF-MS. It is filed as biochemical, Micromonospora rosaria. The note with it: MroA2 multi-site variants; qualitatively estimated from leader peptide vs remaining didehydrated intermediate. Here is the method: After incubation, the enzyme reaction (18 μL) was split into two equal parts. One part was treated with MBP-MroD such that the final concentration of MBP-MroD is 3 μM, and the other part was added the same volume but with buffer lacking MBP-MroD (50 mM HEPES, 300 mM NaCl, 2.5% glycerol, 0.5 mM TCEP). The reaction further proceeded for 1.5 h at room temperature. All reaction mixture was then desalted with solid-phase extraction using Ziptip with 0.6 μL C18 resin (EMD Millipore) and crystallized on an MTP384 steel target plate using either saturated sinapic acid or 50 mg/mL Super DHB [dissolved in 60% acetonitrile and 0.1% trifluoroacetic acid (TFA)] as the matrix. The crystallized spots were then analyzed using MALDI-TOF-MS (Bruker Ultraflex). The external standard for MALDI-TOF-MS analysis is ProteoMass Peptide and Protein MALDI-MS Calibration Kit (Sigma).

Turning to SGIAKAGQSWLI [Number 28], in the assay on MroB/C, the Dha formation is 2 Dha. The “Relative MroD conversion” value in the assay on MroD is given as 1.
